The target in this test is Glutamate receptor ionotropic, NMDA 1 (Rattus norvegicus, UniProt P35439). Nature of the test: Compound was evaluated for its ability to displace [3H]TCP from PCP N-methyl-D-aspartate glutamate receptor in rat brain. It counts as tissue-based.
In turn, `c1ccc([C@@]2(N3CCCCC3)C[C@H]3C[C@H]3C2)cc1` had a Ki of 0.711 µM.

Turning to `c1ccc([C@]2(N3CCCCC3)C[C@H]3C[C@H]3C2)cc1`, the Ki was 0.644 µM.

Take `c1ccc([C@@]2(N3CCCCC3)CC[C@H]3C[C@H]32)cc1`: the Ki was 8.22 µM.

Compound `c1ccc([C@]2(N3CCCCC3)CC[C@H]3C[C@H]32)cc1` (racemic) yielded a Ki of 0.582 µM. This Ki lies about 14-fold lower than the previous one.

Turning to `c1ccc(C2(N3CCCCC3)CCCCC2)cc1` [PHENCYCLIDINE], the Ki turned out to be 0.0645 µM.

With `c1ccc([C@]2(N3CCCCC3)CC[C@@H]3C[C@@H]32)cc1`, the Ki came to 29 µM.

The values above are taken from ChEMBL document CHEMBL1126186 (J Med Chem, 1992).
